According to patent US20070225170A1, “2-Halo-6-Alkylphenyl-Substituted Tetramic Acid Derivatives” (BAYER CROPSCIENCE AKTIENGESELLSCHAFT, priority 2003, published 2007):

Legend:
[1] = test system: larvae of the mustard beetle (Phaedon cochleariae); assay: Phaedon test (spray treatment); format: in vivo; conditions: 100 g/ha
Protocol: Phaedon Test (Spray Treatment) To produce a suitable preparation of active compound, 1 part by weight of active compound is mixed with the stated amounts of solvents and emulsifier, and the concentrate is diluted with emulsifier-containing water to the desired concentration. Discs of Chinese cabbage (Brassica pekinensis) are sprayed with a preparation of active compound of the desired concentration and, after they have dried, populated with larvae of the mustard beetle (Phaedon cochleariae).

[2] = test system: Avena sativa; assay: Herbicidal post-emergence action, greenhouse; format: in vivo; conditions: 320 g of a.i./ha, greenhouse (T22-T24)
Protocol: (§1) Herbicidal Post-Emergence Action
(§2) Seeds of monocotyledonous and dicotyledonous weed and crop plants are placed into sandy loam in wood fibre pots, covered with soil and cultivated in a greenhouse under good growth conditions. 2-3 weeks after sowing, the test plants are treated at the one-leaf stage. The test compounds, formulated as wettable powders (WP), are, in various dosages with a water application rate of 600 l/ha (converted), with 0.2% of wetting agent added, sprayed onto the green parts of the plants. After the test plants were kept in the greenhouse under optimum growth conditions for about 3 weeks, the effect of the preparations is rated visually in comparison to untreated controls (herbicidal effect in percent (%): 100% effect=the plants have died, 0% effect=like control plants).

[3] = test system: Lolium; assay: Herbicidal post-emergence action, greenhouse; format: in vivo; conditions: 320 g of a.i./ha
Protocol: as §1, §2

[4] = test system: Setaria; assay: Herbicidal post-emergence action, greenhouse; format: in vivo; conditions: 320 g of a.i./ha
Protocol: as §1, §2

[5] = test system: Sinapis; assay: Herbicidal post-emergence action, greenhouse; format: in vivo; conditions: 320 g of a.i./ha, greenhouse (T22)
Protocol: as §1, §2

[6] = test system: Stellaria; assay: Herbicidal post-emergence action, greenhouse; format: in vivo; conditions: 320 g of a.i./ha
Protocol: as §1, §2

[7] = test system: greenhouse red spider mite (Tetranychus urticae); assay: Tetranychus test (OP-resistant/spray treatment); format: in vivo
Protocol: Tetranychus Test (OP-Resistant/Spray Treatment)
To produce a suitable preparation of active compound, 1 part by weight of active compound is mixed with the stated amounts of solvents and emulsifier, and the concentrate is diluted with emulsifier-containing water to the desired concentration.
Discs of bean leaves (Phaseolus vulgaris), which are infested by all stages of the greenhouse red spider mite (Tetranychus urticae), are sprayed with a preparation of active compound of the desired concentration.
After the desired period of time, the activity in % is determined. 100% means that all spider mites have been killed; 0% means that none of the spider mites have been killed.

[8] = test system: Summer barley; assay: Container trials with cereals in the greenhouse, without/with safener; conditions: in vivo
[9] = test system: Summer wheat; assay: as above; conditions: in vivo
[10] = test system: Meloidogyne incognita; assay: Meloidogyne test; format: in vivo; conditions: 20 ppm; nematicidal action by formation of galls on lettuce roots
Protocol: To produce a suitable preparation of active compound, 1 part by weight of active compound is mixed with the stated amounts of solvent and emulsifier, and the concentrate is diluted with water to the desired concentration.
Vessels are filled with sand, solution of active compound, Meloidogyne incognita egg/larvae suspension and lettuce seeds. The lettuce seeds germinate and the plants develop. On the roots, galls develop.
After the desired period of time, the nematicidal action is determined in % by the formation of galls. 100%, means that no galls have been found; 0% means that the number of galls on the treated plants corresponds to that of the untreated control.

[11] = test system: Amaranthus; assay: Herbicidal post-emergence action, greenhouse; format: in vivo; conditions: 320 g of a.i./ha, second series (T27, T28)
Protocol: as §1, §2

[12] = greenhouse, second series (T25-T28)
[13] = greenhouse, second series (T26, T28)

Row | SMILES | Kill rate in % after 7d [1] | herbicidal effect, Avena sativa [2] | herbicidal effect, Lolium ([3]; greenhouse (T22-T24)) | herbicidal effect, Lolium [3, 12] | herbicidal effect, Setaria ([4]; greenhouse (T22-T24)) | herbicidal effect, Setaria [4, 12] | herbicidal effect, Sinapis [5] | herbicidal effect, Stellaria [6, 13] | Kill rate in % after 5d ([7]; 500 g/ha) | Summer barley observed (%) [8] | Kill rate in % after 5d ([7]; 100 g/ha) | Summer wheat observed (%) [9] | Effect in % after 14d [10] | herbicidal effect, Amaranthus [11] | herbicidal effect, Stellaria ([6]; greenhouse (T23))
1 | CCc1cc(C)cc(Br)c1C1=C(O)CN(C2CC2)C1=O [I-a-7] | 100% | 90% | 100% | 100% | 100% | 80% | 70% | 80% |  |  |  |  |  |  | 
2 | CCc1cc(C)cc(Br)c1C1=C(OC(=O)C(C)C)C(C)(C)NC1=O [I-b-2] |  | 90% | 100% |  | 100% |  | 70% |  |  |  |  |  |  |  | 
3 | CCOC(=O)OC1=C(c2c(Br)cc(C)cc2CC)C(=O)N(CC)C1C (centres unmarked) [I-c-7] |  | 80% | 90% |  | 100% |  |  |  | 90% | 10% |  |  |  |  | 
4 | CCOC(=O)OC1=C(c2c(Br)cc(C)cc2CC)C(=O)N(C)C1CC (centres unmarked) [I-c-6] |  | 80% | 90% | 80% | 100% | 80% |  | 70% |  |  | 70% | 15% |  |  | 
5 | CCc1cc(C)cc(Br)c1C1=C(O)C(C)N(CC)C1=O (centres unmarked) [I-a-5] |  | 80% | 90% |  | 100% |  |  |  |  |  | 90% |  |  |  | 
6 | CCc1cc(C)cc(Br)c1C1=C(O)C2CCCN2C1=O (centres unmarked) [I-a-1] |  | 90% | 100% | 90% | 90% | 90% |  | 70% |  |  |  |  | 80% | 100% | 70%
7 | CCc1cc(C)cc(Br)c1C1=C(O)C(CC)N(C)C1=O (centres unmarked) [I-a-6] | 100% | 80% | 100% |  | 100% |  | 70% |  |  |  | 80% |  |  |  | 
8 | CCc1cc(C)cc(Br)c1C1=C(OC(=O)C(C)(C)C)C2CCCN2C1=O (centres unmarked) [I-b-1] |  | 90% | 90% | 100% | 90% | 100% |  |  |  |  |  |  |  | 70% | 
